Tests used:
HSA = target: T1, HSA (Homo sapiens, UniProt P02768); assay: HSA binding by immobilised HSA HPLC column; format: in vitro ADME; conditions: for logK measured / % HSA measured: HSA column, typical data; for logK measured: derived from the calibration curve
T1 construct: purchased Chromtech (Cheshire, UK)
Method: Instrument: Agilent HP1100 HPLC instruments were used throughout.
HPLC columns: Chromtech Immobilised HSA HPLC column 50×3 mm was purchased from Chromtech (Cheshire, UK).
Mobile phase and detection: The mobile phase A was 50 mM pH 7.4 ammonium acetate solution, while mobile phase B was 2-Propanol (HPLC grade, Runcorn, UK). The mobile phase flow rate was 1.8 ml/min. The column temperature was kept at 30° C. The gradient profile and run time were the same with each column, the linear gradient from 0 to 30% 2-propanol was applied from 0 to 3 minutes. From 3 to 10 minutes, the mobile phase composition was constant 30% 2-propanol and 70% 50-mM ammonium acetate. […] Each separation was stopped after 15 minutes.
Detection: Chromatograms were recorded at 230 and 254 nm by a diode array UV absorption detector at room temperature.

plasma protein = assay: Literature % plasma protein binding of calibration compounds; conditions: linear conversion of literature % PPB
Method: Calibration of the protein columns: The column performance check and the calibration have been performed before the analysis of every 96 well plate. The compounds used for the column calibrations were dissolved separately in 0.5 mg/ml concentration in 50% 2-propanol and 50% pH 7.4 ammonium acetate solution mixtures.
The literature % PPB (bound in plasma) values were converted to the linear free energy related logk values (logarithm of apparent affinity constant) using the following equation.

[1] = target: T2, human adenosine A3 receptor (Homo sapiens, UniProt P0DMS8); assay: Agonist activity against adenosine A3 receptor (CHO or yeast assay); format: cell-based; conditions: A2A over A3
T2 construct: expressed in transfected cells; host or cells: CHO cells or yeast cells
T2 sequence (P0DMS8 1-318): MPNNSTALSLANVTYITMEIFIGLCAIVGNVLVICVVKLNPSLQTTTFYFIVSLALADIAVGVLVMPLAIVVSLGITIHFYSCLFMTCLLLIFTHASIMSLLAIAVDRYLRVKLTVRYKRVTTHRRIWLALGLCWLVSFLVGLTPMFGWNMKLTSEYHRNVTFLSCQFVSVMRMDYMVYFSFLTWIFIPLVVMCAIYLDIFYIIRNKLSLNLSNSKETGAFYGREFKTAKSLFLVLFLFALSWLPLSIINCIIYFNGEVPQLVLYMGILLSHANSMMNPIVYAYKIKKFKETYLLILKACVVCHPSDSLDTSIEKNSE
Method: (§1) 1) In Vitro: Agonist Activity Against Adenosine A1, A2A, A2B and A3 Receptors.
(§2) The agonist potency and selectivity of compounds against human adenosine receptors is determined using Chinese hamster ovary (CHO) cells or yeast cells transfected with the gene for the relevant receptor.
(§3) Two methods may be used in the CHO cells. (i) For the SPAP assay, cells are also transfected with cyclic AMP (cAMP) response elements promoting the gene for secreted placental alkaline phosphatase (SPAP). Changes in cAMP are measured as changes in the levels of SPAP. (ii) The DiscoveRx assay is an enzyme complementation assay that involves two fragments of β-galactosidase, enzyme acceptor (EA) and enzyme donor (ED). […] For both methods the effect of test compounds is determined by their effects on basal levels of cAMP (A2A and A2B) or on forskolin enhanced cAMP (A1 and A3).
(§4) For the yeast assay, receptor stimulation causes activation of a reporter gene, namely FUS1-HIS3, resulting in histidine production which is essential for cell growth. […] This response is measured from the production of the exoglucanase, an enzyme secreted constitutively by yeast cells.
(§5) In all of the in vitro assays the activity of test compounds is expressed as a ratio to that of the non-selective adenosine receptor agonist, N-ethyl carboxamide adenosine (NECA).

[2] = Cardiovascular model (therapeutic index); format: in vivo, rat; conditions: anaesthetised male Wistar rats, administered into the trachea
Method: 3) Therapeutic Index (TI) Cardiovascular Model: Male Wistar rats were anaesthetised with chloralose/pentobarbitone and the jugular vein, left carotid artery and trachea were cannulated. The arterial cannula was connected to a transducer for the continuous measurement of blood pressure and heart rate. Compound (or vehicle) was administered into the trachea in a 100 ul volume, and the dose of test compound giving a 20% increase in blood pressure and heart rate (ED20) was determined. The TI for a test compound is calculated as the ratio of the ED20 in the cardiovascular model compared with the ED50 in the LPS model.

[3] = target: T3, human adenosine A1 receptor (Homo sapiens, UniProt P30542); assay: Agonist activity against adenosine A1 receptor (CHO or yeast assay); format: cell-based; conditions: A2A over A1
T3 construct: expressed in transfected cells; host or cells: CHO cells or yeast cells
T3 sequence (P30542 1-326): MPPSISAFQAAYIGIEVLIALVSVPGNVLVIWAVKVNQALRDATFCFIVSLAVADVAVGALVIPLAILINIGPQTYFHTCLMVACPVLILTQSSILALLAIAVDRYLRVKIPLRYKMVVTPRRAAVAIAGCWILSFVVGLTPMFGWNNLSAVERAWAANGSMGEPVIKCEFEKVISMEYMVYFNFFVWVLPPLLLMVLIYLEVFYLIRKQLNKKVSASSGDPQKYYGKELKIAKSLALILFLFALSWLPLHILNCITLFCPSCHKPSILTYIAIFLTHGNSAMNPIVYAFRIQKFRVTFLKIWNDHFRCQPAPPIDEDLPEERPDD
Method: as §1, §2, §3, §4, §5

neutrophil accumulation = assay: In vivo anti-inflammatory LPS model; parameters: species or system rat; conditions: male CD albino rats, intratracheal, dose of 30 μg/kg or less, lung lavage 4 h after LPS challenge
Method: In Vivo Anti-Inflammatory Agonist Activity LPS Model: Test compound was administered to male CD albino rats prior to exposure to LPS. Compound (or vehicle) was injected in a 200 ul volume into the trachea , via a cannula placed trans-orally, whilst the animals were under isoflurane anaesthesia. After a recovery period of 30 min, rats were placed in a chamber and exposed to an aerosol of E. Coli-derived LPS for 15 min. Four hours after LPS challenge the rats were killed, the lungs lavaged, and both total and differential cell counts determined.

[4] = target: T4, human adenosine A2B receptor (Homo sapiens, UniProt P29275); assay: Agonist activity against adenosine A2B receptor (CHO or yeast assay); format: cell-based; conditions: A2A over A2B
T4 construct: expressed in transfected cells; host or cells: CHO cells or yeast cells
T4 sequence (P29275 1-332): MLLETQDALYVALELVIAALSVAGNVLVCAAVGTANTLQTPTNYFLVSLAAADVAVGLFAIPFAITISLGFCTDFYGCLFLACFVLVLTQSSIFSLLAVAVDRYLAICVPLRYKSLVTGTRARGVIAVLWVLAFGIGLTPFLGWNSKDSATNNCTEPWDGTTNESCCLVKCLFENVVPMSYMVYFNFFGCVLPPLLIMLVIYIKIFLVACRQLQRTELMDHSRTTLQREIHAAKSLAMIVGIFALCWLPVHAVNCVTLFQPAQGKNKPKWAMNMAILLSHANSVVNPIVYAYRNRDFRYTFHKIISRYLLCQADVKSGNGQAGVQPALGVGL
Method: as §1, §2, §3, §4, §5

T1 sequence (P02768 25-609): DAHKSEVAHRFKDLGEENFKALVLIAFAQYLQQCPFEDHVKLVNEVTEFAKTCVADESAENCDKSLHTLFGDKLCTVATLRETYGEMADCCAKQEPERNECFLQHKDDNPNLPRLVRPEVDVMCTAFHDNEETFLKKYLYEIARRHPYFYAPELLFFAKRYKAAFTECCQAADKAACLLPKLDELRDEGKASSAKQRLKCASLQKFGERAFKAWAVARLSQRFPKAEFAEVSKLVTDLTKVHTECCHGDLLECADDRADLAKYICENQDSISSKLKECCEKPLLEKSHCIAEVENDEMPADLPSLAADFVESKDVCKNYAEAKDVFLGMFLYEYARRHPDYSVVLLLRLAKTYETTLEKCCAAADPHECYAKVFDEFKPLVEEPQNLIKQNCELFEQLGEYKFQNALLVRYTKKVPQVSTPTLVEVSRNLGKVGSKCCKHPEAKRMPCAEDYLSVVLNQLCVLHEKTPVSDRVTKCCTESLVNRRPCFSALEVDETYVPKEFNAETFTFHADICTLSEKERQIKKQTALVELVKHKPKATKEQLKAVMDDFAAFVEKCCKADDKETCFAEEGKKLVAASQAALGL

Row | Structure (SMILES) | logK measured (HSA) | % HSA measured (HSA) [%] | lit logK (plasma protein) | also measured
1 | CCCC1O[C@@H]2C[C@H]3[C@@H]4CCC5=CC(=O)C=C[C@]5(C)[C@H]4[C@@H](O)C[C@]3(C)[C@]2(C(=O)CO)O1 (stereo partly drawn) [Budesonide] | 0.70 | 84.2 | 0.83 | 
2 | COC(=O)C1=C(C)NC(C)=C(C(=O)OCCN(C)Cc2ccccc2)C1c1cccc([N+](=O)[O-])c1 (stereo not drawn) [Nicardipine] | 1.38 | 97.0 |  | 
3 | O=C(O)Cc1ccccc1Nc1c(Cl)cccc1Cl [Diclofenac] |  |  | 1.92 | 
4 | CN1C(C(=O)Nc2ccccn2)=C(O)c2ccccc2S1(=O)=O [Piroxicam] | 1.10 | 93.6 | 1.16 | 
5 | NC(=O)N1c2ccccc2C=Cc2ccccc21 [Carbamazepine] | 0.50 | 76.8 | 0.46 | 
6 | CCn1nnc([C@H]2O[C@@H](n3cnc4c(N[C@H]5CC[C@H](Nc6nc(NCCc7cn(C)cn7)nc7c6ncn7[C@@H]6O[C@H](c7nnn(CC)n7)[C@@H](O)[C@H]6O)CC5)nc(NCCc5cn(C)cn5)nc43)[C@H](O)[C@@H]2O)n1.O=CO [Formic acid—(2R,3R,4S,5R,2′R,3′R,4′S,5′R)-2,2′-{trans-1,4-cyclohexanediylbis[imino(2-{[2-(1-methyl-1H-imidazol-4-yl)ethyl]amino}-9H-purine-6,9-diyl)]}bis[5-(2-ethyl-2H-tetrazol-5-yl)tetrahydro-3,4-furandiol] (4:1)] |  |  |  | binding to HSA (HSA; immobilised HSA HPLC column, pH 7.4): greater than 90%; selectivity for A2A than A3 [1]: greater than 100 fold; dose giving a 20% increase in blood pressure and heart rate (ED20) [2]: about 7 μg/kg; selectivity for A2A than A1 [3]: greater than 100 fold; reduction in neutrophil accumulation (neutrophil accumulation): greater than 50%; selectivity for A2A than A2B [4]: greater than 100 fold
7 | O=C1CN=C(c2ccccn2)c2cc(Br)ccc2N1 [Bromazepam] | 0.38 | 71.2 | 0.17 | 
8 | CNC(=C[N+](=O)[O-])NCCSCc1csc(CN(C)C)n1 [Nizatidine] | −0.35 | 31.1 | −0.28 | 
